What was measured:
Assay in all cases: Weeding effect in post-emergence stage (greenhouse pot spray)
Type in all cases: in vivo
[1] = tested on: Amaranthus retroflexus
Excerpt: (§1) The activity level criteria for plant damage (i.e., growth control rate) are as follows:
(§2) The above growth control rates are fresh weight control rates.
(§3) Experiment on weeding effect in post-emergence stage: monocotyledonous and dicotyledonous weed seeds (Descurainia sophia, Capsella bursa-pastoris, Abutilon theophrasti, Galium aparine, Stellaria media, Lithospermum arvense, rorippa indica, Alopecurus aequalis, Beckmannia syzigachne, Sclerochloa dura, Phleum paniculatum, Bromus japonicus, Aegilops tauschii, Phalaris arundinacea, Amaranthus retroflexus, Chenopodiaceae, Commelina communis, Sonchus arvensis, convolvulus arvensis, Cirsium setosum, Solanum nigrum, Acalypha australis, Digitaria sanguinalis, Echinochloa crusgalli, Setaria viridis, Setaria glauca, Leptochloa chinensis, Monochoria vaginalis, Sagittaria trifolia, Scirpus juncoides, Cyperus rotundus, Cyperus iria, Cyperus difformis, Fimbristylis, Portulaca oleracea, Xanthium sibiricum, Pharbitis nil) and major crop seeds (wheat, corn, rice, soybean, cotton, oilseed rape, millet, sorghum, potato, sesame, ricinus) were placed in plastic pots filled with soil, then covered with 0.5-2 cm of soil, allowed to grow in a good greenhouse environment. After 2 weeks of sowing, the test plants were treated in the 2 to 3 leaf stage. The tested compounds of the present invention were respectively dissolved in acetone, then added with Tween 80 and 1.5 liter/ha of emulsifiable concentrate of methyl oleate as synergist, diluted with a certain amount of water to obtain a solution with a certain concentration, and sprayed with a spray tower onto the plants. After the application, the plants were cultured for 3 weeks in the greenhouse, and then the experimental results of the weeding were counted. The doses of the used compounds were 500, 250, 125, 60, 15 g a.i./ha, and the averages were obtained by repeating for three times.

[2] = tested on: Stellaria media
Excerpt: as §1, §2, §3

[3] = tested on: Abutilon theophrasti
Summary of the method: (§4)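 Greenhouse pot plants at the 2–3 leaf stage (2 weeks after sowing) were sprayed with compound in acetone with Tween 80 and methyl oleate EC synergist (1.5 L/ha) at 500, 250, 125, 60 or 15 g a.i./ha. Fresh-weight growth control was scored 3 weeks later, averaged over three replicates.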

[4] = tested on: Digitaria sanguinalis
Summary of the method: as §4

[5] = tested on: Echinochloa crusgalli
Summary of the method: as §4

| SMILES | Amaranthus retroflexus (activity level) ([1]; Table 2, dose 500 g a.i./ha) | Stellaria media (activity level) ([2]; Table 2, dose 500 g a.i./ha) | Abutilion theophrasti (activity level) ([3]; Table 2, dose 500 g a.i./ha) | Digitaria sanguinalis (activity level) ([4]; Table 2, dose 500 g a.i./ha) | Echinochloa crusgah (activity level) ([5]; Table 2, dose 500 g a.i./ha) | Amaranthus retroflexus (activity level) ([1]; Table 2, dose 250 g a.i./ha) | Stellaria media (activity level) ([2]; Table 2, dose 250 g a.i./ha) | Abutilion theophrasti (activity level) ([3]; Table 2, dose 250 g a.i./ha) | Digitaria sanguinalis (activity level) ([4]; Table 2, dose 250 g a.i./ha) | Echinochloa crusgah (activity level) ([5]; Table 2, dose 250 g a.i./ha) |
| --- | --- | --- | --- | --- | --- | --- | --- | --- | --- | --- |
| CC[S+]([O-])c1c(C(F)(F)F)ccc(C(=O)Nc2nnco2)c1F (centres unmarked) [Compound 3-5] | 5 (Level 5: growth control rate is above 85%) | 5 (Level 5: growth control rate is above 85%) | 5 (Level 5: growth control rate is above 85%) | 5 (Level 5: growth control rate is above 85%) | 5 (Level 5: growth control rate is above 85%) |  |  |  |  |  |
| CCSc1c(C(F)(F)F)ccc(C(=O)Nc2nnc(CC)o2)c1F [Compound 2-4] | 5 (Level 5: growth control rate is above 85%) | 5 (Level 5: growth control rate is above 85%) | 5 (Level 5: growth control rate is above 85%) | 5 (Level 5: growth control rate is above 85%) | 5 (Level 5: growth control rate is above 85%) |  |  |  |  |  |
| COCCC[S+]([O-])c1c(C(F)(F)F)ccc(C(=O)Nc2nnc(C)o2)c1F (centres unmarked) [Compound 1-448] | 5 (Level 5: growth control rate is above 85%) | 5 (Level 5: growth control rate is above 85%) | 5 (Level 5: growth control rate is above 85%) | 5 (Level 5: growth control rate is above 85%) | 5 (Level 5: growth control rate is above 85%) |  |  |  |  |  |
| CC(C)[S+]([O-])c1c(C(F)(F)F)ccc(C(=O)Nc2nnco2)c1F (centres unmarked) [Compound 3-11] | 5 (Level 5: growth control rate is above 85%) | 5 (Level 5: growth control rate is above 85%) | 5 (Level 5: growth control rate is above 85%) | 5 (Level 5: growth control rate is above 85%) | 5 (Level 5: growth control rate is above 85%) |  |  |  |  |  |
| Cc1nnc(NC(=O)c2ccc(C(F)(F)F)c([S+]([O-])C(C)(C)C)c2F)o1 (centres unmarked) [Compound 1-137] | 5 (Level 5: growth control rate is above 85%) | 5 (Level 5: growth control rate is above 85%) | 5 (Level 5: growth control rate is above 85%) | 5 (Level 5: growth control rate is above 85%) | 5 (Level 5: growth control rate is above 85%) |  |  |  |  |  |
| COC[S+]([O-])c1c(C(F)(F)F)ccc(C(=O)Nc2nnc(C)o2)c1F (centres unmarked) [Compound 1-443] | 5 (Level 5: growth control rate is above 85%) | 5 (Level 5: growth control rate is above 85%) | 5 (Level 5: growth control rate is above 85%) | 5 (Level 5: growth control rate is above 85%) | 5 (Level 5: growth control rate is above 85%) |  |  |  |  |  |
| CNCC[S+]([O-])c1c(C(F)(F)F)ccc(C(=O)Nc2nnc(C)o2)c1F (centres unmarked) [Compound 1-441] | 5 (Level 5: growth control rate is above 85%) | 5 (Level 5: growth control rate is above 85%) | 5 (Level 5: growth control rate is above 85%) | 5 (Level 5: growth control rate is above 85%) | 5 (Level 5: growth control rate is above 85%) |  |  |  |  |  |
| O=C(Nc1nnco1)c1ccc(C(F)(F)F)c([S+]([O-])CCC(F)(F)F)c1F (centres unmarked) [Compound 3-52] | 5 (Level 5: growth control rate is above 85%) | 5 (Level 5: growth control rate is above 85%) | 5 (Level 5: growth control rate is above 85%) | 5 (Level 5: growth control rate is above 85%) | 5 (Level 5: growth control rate is above 85%) |  |  |  |  |  |
| CCOCC[S+]([O-])c1c(C(F)(F)F)ccc(C(=O)Nc2nnc(C)o2)c1F (centres unmarked) [Compound 1-446] |  |  |  |  |  | 5 (Level 5: growth control rate is above 85%) | 5 (Level 5: growth control rate is above 85%) | 5 (Level 5: growth control rate is above 85%) | 5 (Level 5: growth control rate is above 85%) | 5 (Level 5: growth control rate is above 85%) |
| Cc1nnc(NC(=O)c2ccc(C(F)(F)F)c(S(=O)(=O)CCC(F)(F)F)c2F)o1 [Compound 1-53] | 5 (Level 5: growth control rate is above 85%) | 5 (Level 5: growth control rate is above 85%) | 5 (Level 5: growth control rate is above 85%) | 5 (Level 5: growth control rate is above 85%) | 5 (Level 5: growth control rate is above 85%) |  |  |  |  |  |
| COCC[S+]([O-])c1c(C(F)(F)F)ccc(C(=O)Nc2nnco2)c1F (centres unmarked) [Compound 3-57] | 5 (Level 5: growth control rate is above 85%) | 5 (Level 5: growth control rate is above 85%) | 5 (Level 5: growth control rate is above 85%) | 5 (Level 5: growth control rate is above 85%) | 5 (Level 5: growth control rate is above 85%) |  |  |  |  |  |
| Cc1nnc(NC(=O)c2ccc(C(F)(F)F)c(SCC(F)(F)F)c2F)o1 [Compound 1-50] | 5 (Level 5: growth control rate is above 85%) | 5 (Level 5: growth control rate is above 85%) | 5 (Level 5: growth control rate is above 85%) | 5 (Level 5: growth control rate is above 85%) | 5 (Level 5: growth control rate is above 85%) |  |  |  |  |  |
| Cc1nnc(NC(=O)c2ccc(C(F)(F)F)c(S(=O)(=O)C(C)C)c2F)o1 [Compound 1-12] |  |  |  |  |  | 5 (Level 5: growth control rate is above 85%) | 5 (Level 5: growth control rate is above 85%) | 5 (Level 5: growth control rate is above 85%) | 5 (Level 5: growth control rate is above 85%) | 5 (Level 5: growth control rate is above 85%) |
| CCC[S+]([O-])c1c(C(F)(F)F)ccc(C(=O)Nc2nnco2)c1F (centres unmarked) [Compound 3-8] | 5 (Level 5: growth control rate is above 85%) | 5 (Level 5: growth control rate is above 85%) | 5 (Level 5: growth control rate is above 85%) | 5 (Level 5: growth control rate is above 85%) | 5 (Level 5: growth control rate is above 85%) |  |  |  |  |  |
| Cc1nnc(NC(=O)c2ccc(C(F)(F)F)c([S+]([O-])CC(C)(C)C)c2F)o1 (centres unmarked) [Compound 1-392] | 5 (Level 5: growth control rate is above 85%) | 5 (Level 5: growth control rate is above 85%) | 5 (Level 5: growth control rate is above 85%) | 5 (Level 5: growth control rate is above 85%) | 5 (Level 5: growth control rate is above 85%) |  |  |  |  |  |
| C=CCC[S+]([O-])c1c(C(F)(F)F)ccc(C(=O)Nc2nnc(C)o2)c1F (centres unmarked) [Compound 1-397] | 5 (Level 5: growth control rate is above 85%) | 5 (Level 5: growth control rate is above 85%) | 5 (Level 5: growth control rate is above 85%) | 5 (Level 5: growth control rate is above 85%) | 5 (Level 5: growth control rate is above 85%) |  |  |  |  |  |

Source: patent publication US20230041563A1, “N-(1,3,4-OXADIAZOL-2-YL)ARYLCARBOXAMIDES OR SALTS THEREOF, PREPARATION METHODS, HERBICIDAL COMPOSITIONS AND USES THEREOF” (priority 2018, published 2023)
